Patent US20050014692A1, “Lactate dehydrogenase as a novel target and reagent for diabetes therapy” (priority 2003, published 2005)
“Also recorded” adds a separate entry of the source.

Experiments:
[1] = system: cell lines derived from rat INS-1 cells; settings: glucose-responsive clones; in direct correlation with changes in pyruvate cycling; cited from earlier work
[2] = system: 832/13 cells; assay: Insulin secretion assay in 832/13 cells (radioimmunoassay); format: cell-based, rat
Description: FIG. 3. Stimulation of insulin secretion by lactate, pyruvate, and glucose in 832/13 cells. Confluent, insulin secreting 832/13 cells were stimulated for 2 hours with various concentrations of secretagogues as indicated in the figure, and IS was determined by radioimmunoassay of the cell supernatant.
FIG. 4. The effect of rat LDHA overexpression on glucose, pyruvate, and lactate-stimulated insulin secretion in 832/13 cells. 832/13 cells were treated with adenovirus expressing rat LDHA (AdLDH) and beta-galactosidase (Adbetagal), respectively. The LDH activity in cell extracts was monitored by the decrease in absorbance at 340 nm (insert) and the insulin response to glucose, pyruvate, and lactate was examined by radioimmunoassay.
FIG. 7B. The effect of the LDH inhibitor oxamate on insulin secretion in 832/13 cells. Cells were incubated with ^13C labeled glucose for 4 hours in the presence or absence of oxamate.
FIG. 14. The effect of mitLDHA and LDHA on fuel-mediated IS in the 832/13 cells. The inset depicts the activity of LDH for each experiment.
The cell line 832/13 was created from INS-1 insulinoma β-cells as described earlier (Hohmeier et al. (2000) Diabetes 49:424430). Cells were cultured in RPMI-1640 medium containing 11 mM glucose supplemented with 10% fetal bovine serum, 10 mM HEPES, 2 mM glutamine, 1 mM sodium pyruvate and […] β-mercaptoethanol. Media was routinely changed every second day. […]
Insulin secretion was assayed in HEPES buffered saline solution (HBSS) (114 mM NaCl, 4.7 mM KCl, 1.2 mM KH2PO4, 1.16 mM MgSO4, 20 mM HEPES, 2.5 mM CaCl2, 25.5 mM NaHCO3, pH 7.2 containing 0.2% bovine serum albumin (essentially fatty acid free). Cells were washed in 1 ml of HBSS, preincubated in 1.5 ml of HBSS for 2 hour prior to a 2 hour incubation in the presence of secretagogues as indicated in the figures. The insulin levels were determined by radioimmunoassay with the Coat-A-Count kit (ICN Pharmaceuticals, Costa Mesa, Calif.) and lactate output was determined with a Lactate Reagent kit (Sigma, St. Louis, Mo.) according to protocols outlined by the manufacturer.

[3] = system: glycerol kinase overexpressing 832/13 cells; assay: 13C studies in glycerol kinase overexpressing 832/13 cells (insulin secretion, lactate output, pyruvate cycling); format: cell-based, rat
Description: FIG. 9 depicts the effect of glycerol kinase overexpression in 832/13 cells on insulin excretion, lactate output and pyruvate cycling.
In contrast, pyruvate cycling and lactate output are higher in response to glycerol than to glucose.

In the case of malate in the form of methyl ester, the “effect on glucose-stimulated IS” value [1] is listed as “potentiated”.

With `CC(O)C(=O)O` (centres unmarked) [lactate] the “stimulation of insulin secretion as secretagogue” value (from here on “stimulation … as secretagogue”) ([2]; 832/13 cells overexpressing LDHA (AdLDH treated)) was “as effective as the other two fuels; also recorded: as effective as glucose or pyruvate”, the “stimulation … as secretagogue” value ([2]; 832/13 cells without LDHA overexpression, 2 hours, relative to glucose or pyruvate) was “poor secretagogue; also recorded: only a weak stimulator” and the “stimulation … as secretagogue” value ([2]; 832/13 cells without LDHA overexpression, 2 hours, relative to glucose or pyruvate, listed as Lactate) was “poor secretagogue”.

In the case of `OCC(O)CO` [glycerol], the “lactate output, compared with glucose” value [3] was “higher”, the “pyruvate cycling, compared with glucose” value [3] was “higher” and the “stimulation of insulin secretion, compared with glucose” value [3] was “to the same extent”.

In the case of `O=C(O)Cc1ccccc1` [phenylacetic acid], the “effect on glucose-stimulated IS” value [1] is listed as “impaired”.
